One data set concerns the target T1, BTK-C481S (Homo sapiens, UniProt Q06187, C481S).
T1 construct: expressed in transfected cells; host or cells: HEK293 OE BTK-C481S (overexpressing) cell line
Nature of the data set: BTK-C481S degradation activity test in HEK293 OE BTK-C481S cells. It is filed as cell-based. Particulars: 24 h incubation, Western blot or Elisa. As for the experimental part:
HEK293 OE BTK-C481S cell line cells were seeded at 500,000 to 1,000,000 cells/well in a 6-well plate. The compounds were diluted to different concentrations and added to the plate, and after 24 h of incubation, the cells were harvested. After lysing the cells, the total protein concentration in each well was determined using the BCA method. The amount of BTK-C481S was determined using Western blot or Elisa method. The amount of undegraded BTKC481S protein at each drug concentration was compared with the amount of BTKC481S protein in the blank control group to calculate the degradation rate. The degradation curve was drawn based on the degradation rate at each concentration, and the half degradation concentration (DC50) was calculated by fitting.
On the technique in general: In western blotting, separated proteins are transferred to a membrane and probed.

Data set [1] concerns OCL-LY10 transplanted tumors. Kind of data set: Chronic efficacy test, OCL-LY10 subcutaneous transplanted tumor model. It is filed as in vivo. The conditions noted are these: NOD/SCID mice, intragastric 10 mg/kg, 3 weeks. As for the experimental part: NOD/SCID mice were subcutaneously inoculated with OCL-LY10 cells to establish a tumor model. When the tumors grew to about 100 mm^3, the mice were administered with drugs in groups. The mode of administration was as follows: the test compound was administered intragastrically at 10 mg/kg; The changes in body weight and tumor size of the mice were measured twice per week. After 3 weeks, the mice were sacrificed by cervical dislocation, and the efficacy of the compounds on transplanted tumors in OCL-LY10 mice was examined.

The target of another data set is T2, BTK (Homo sapiens, UniProt Q06187).
T2 construct: endogenous in cells; host or cells: Mino cells
Kind of data set: BTK degradation activity test in Mino cells. It counts as cell-based. Particulars: 16 h incubation, Western blot or Elisa. The gist of the method: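 Mino cells treated with a concentration series of compound for 16 h, then lysed; total protein by BCA. BTK quantified by Western blot or ELISA, degradation rate calculated against blank control, and DC50 fitted from the degradation curve.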

Data set [2] in a line: Mouse absorption test (pharmacokinetic properties in mice). It counts as in vivo. Particulars: intragastric, 30 mg/kg; for DNAUC: DNAUC = AUC/Dose; for Cmax: mouse, plasma, po. How it is done: […] The blood collection time points for intragastric administration were 0.25, 0.5, 1, 2, 4, 6, 8, and 24 h. 0.5 mL of blood was taken with a capillary tube from the orbit, and placed in an EP tube containing EDTA anticoagulant. The EP tube was shaken gently for mixing uniformly, and centrifuged at 3500 rpm and 4° C. for 10 min. The supernatant, i.e., plasma, was taken. Analysis was performed using LC-MS/MS.

Another data set relates to OCI-LY10 cells. Kind of data set: Inhibitory activity on OCI-LY10 cell proliferation (MTS). It is filed as cell-based. The conditions noted are these: Homo sapiens, 72 h. The gist of the method:
(§1)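 Cells seeded at 10000/well, treated with compounds from 1000 nM (4-fold, 8 points) for 72 h (OCI-LY10) or 168 h (Mino) at 37° C. MTS added for 2 h, stopped with SDS, absorbance read at 490 and 650 nm; IC50 from dose-response fit.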

Another data set deals with Mino cells. Kind of data set: Inhibitory activity on Mino cell proliferation (MTS). It is filed as cell-based. The conditions noted are these: Homo sapiens, 168 h incubation. The gist of the method:
as §1

The nature of data set [3]: Stability of compounds in human liver microsome. It is filed as in vitro ADME. Particulars: human liver microsomes, NADPH, 37° C., sampling 0-120 min; read-out: Human liver microsome T1/2. The gist of the method:
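Compound incubated at 37° C with human liver microsomes (1 mg in 1 mL PBS) plus NADPH. Samples taken at 0, 15, 30, 60 and 120 min, quenched into internal standard solution and analysed by LC/MS; metabolism calculated from peak area.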
A general note: Liver microsomes are a subcellular fraction often used to study metabolism.

A further data set relates to B cell activation. Kind of data set: Test of inhibition of B cell activation in PBMC (Anti-Human IgM stimulation, flow cytometry). It counts as cell-based. Particulars: Anti-Human IgM 50 μg/mL, 18 h. As for the experimental part:
The PBMC cell cryopreservation liquid was resuspended in 1640 complete culture medium to an appropriate concentration, and inoculated into a 96-well round-bottom plate at 15×10^4 cells/90 μL/well, and the culture plate was placed in a CO2 incubator for incubation.
The compounds to be tested were formulated into 10 mM stock solutions which were then fold-serially diluted with DMSO, and then diluted with 1640 complete culture liquid to make the concentration 100 times of the final concentration. The compound diluent was added into the cell solution in each well at 1 μL/well and shaken gently. 2 duplicate wells were set up for each concentration. The dosed cell plate was placed in a 37° C. incubator with 5% carbon dioxide and incubated for 1 h.
3. The dosed cell culture plate was taken and 10 μL of Anti-Human IgM-UNLB was added into the well corresponding to the compound to be tested; in 2 groups of cell blank wells, only 10 μL of Anti-Human IgM-UNLB was added; and in 3 groups of cell blank wells, no reagents and antibodies were added. The final concentration of Anti-Human IgM-UNLB was 50 μg/mL.
4. The loaded cell culture plate was placed in a 37° C. incubator with 5% carbon dioxide and incubated for 18 h. Total system: 90 μL PBMC+1 μL compound+10 μL Anti-Human IgM-UNLB
5. Samples were collected and stained, and the cells were analyzed using flow cytometry to obtain data. (When analyzed using flow cytometry, lymphocytes were gated).
Background: A flow cytometer gives signals particle by particle.

The text below walks through data of patent publication US20240360146A1, “BRUTON'S TYROSINE KINASE AND MUTANT DEGRADER, COMPOSITION AND APPLICATION THEREOF” (HANGZHOU HEALZEN THERAPEUTICS CO., LTD., priority 2021, published 2024).

T2 sequence (Q06187 whole entry): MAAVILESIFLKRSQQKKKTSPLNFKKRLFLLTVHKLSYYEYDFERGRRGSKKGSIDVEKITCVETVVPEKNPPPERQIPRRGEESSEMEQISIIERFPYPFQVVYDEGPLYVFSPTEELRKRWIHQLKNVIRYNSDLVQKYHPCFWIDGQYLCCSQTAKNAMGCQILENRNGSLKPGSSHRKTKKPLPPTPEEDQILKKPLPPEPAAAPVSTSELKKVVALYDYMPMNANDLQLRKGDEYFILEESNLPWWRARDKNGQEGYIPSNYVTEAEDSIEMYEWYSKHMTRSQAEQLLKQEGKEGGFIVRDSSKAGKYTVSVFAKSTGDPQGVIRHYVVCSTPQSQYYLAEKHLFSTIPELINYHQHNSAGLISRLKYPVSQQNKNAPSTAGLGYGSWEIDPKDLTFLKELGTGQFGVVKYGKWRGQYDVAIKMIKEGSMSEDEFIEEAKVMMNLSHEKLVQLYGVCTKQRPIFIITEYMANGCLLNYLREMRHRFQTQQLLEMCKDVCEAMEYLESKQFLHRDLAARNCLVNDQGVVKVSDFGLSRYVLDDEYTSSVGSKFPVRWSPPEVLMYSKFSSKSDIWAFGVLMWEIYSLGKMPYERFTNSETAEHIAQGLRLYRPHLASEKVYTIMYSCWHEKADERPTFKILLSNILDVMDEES
T1 sequence (Q06187 whole entry C481S): as the sequence (Q06187 whole entry) above, with C481S counted along it

The term DC50 denotes the concentration at which degradation of the target reaches its halfway point. The low end stands for a more potent degrader, the high end for a less potent degrader. What is called Cmax is the highest concentration seen after dosing. Broadly, the IC50 is the midpoint of a concentration-inhibition curve. High values mean weaker potency in that assay, low ones greater potency in that assay. As for `CN1CCN([C@@H]2CCCN(c3nnc(C(N)=O)c(Nc4ccc(C5CCN(CC6CCN(c7ccc8c(c7)C(=O)N(C7CCC(=O)NC7=O)C8=O)CC6)CC5)cc4)n3)C2)C1=O` (stereo partly drawn) [Compound 123, 5-((4-(1-((1-(2-(2,6-dioxopiperidin-3-yl)-1,3-dioxoisoindolin-5-yl)piperidin-4-yl)methyl)piperidin-4-yl)phenyl)amino)-3-((R)-3-(3-methyl-2-oxoimidazolin-1-yl)piperidin-1-yl)-1,2,4-triazin-6-carboxamide], the values for the DC50 on BTK-C481S and at BTK were under 10 nM and under 1 nM, respectively. In addition, in data set [1], the “TGI (%)” value is 95.66%. In data set [2], this compound came in with a DNAUC of 1920 ng/ml*h/mpk. This compound also displayed a maximum concentration (Cmax) in data set [2] (class symbols) of over 6000 ng/mL. Further, the IC50 in the data set on OCI-LY10 cells stood at 0.2 nM; with Mino cells, 2.11 nM.

With `CN1CCN([C@@H]2CCCN(c3nnc(C(N)=O)c(Nc4ccc(N5CCN(CC6CCN(c7ccc8c(c7)C(=O)N(C7CCC(=O)NC7=O)C8=O)C6)CC5)c(F)c4)n3)C2)C1=O` (stereo partly drawn) [Compound 130, 5-((4-(4-((1-(2-(2,6-dioxopiperidin-3-yl)-1,3-dioxoisoindolin-5-yl)pyrrolidin-3-yl)methyl)piperazin-1-yl)-3-fluorophenyl)amino)-3-((R)-3-(3-methyl-2-oxoimidazolin-1-yl)piperidin-1-yl)-1,2,4-triazin-6-carboxamide], the half-life at 0.97 µg/mL in data set [3] turned out to be 32.6 min. Moreover, the DC50 was under 10 nM on BTK-C481S and under 1 nM on BTK. The compound further gave a DNAUC in data set [2] of 3809 ng/ml*h/mpk. Also, the Cmax in data set [2] (class symbols) was over 6000 ng/mL. For the same compound, the figures for the IC50 with OCI-LY10 cells and with Mino cells were 0.28 nM and 2.41 nM, respectively.

Turning to `CN1CCN([C@@H]2CCCN(c3nnc(C(N)=O)c(Nc4ccc(N5CCN(C[C@@H]6CCN(c7ccc8c(c7)C(=O)N(C7CCC(=O)NC7=O)C8=O)C6)CC5)c(F)c4)n3)C2)C1=O` (stereo partly drawn) [Compound 131, 5-((4-(4-(((3S)-1-(2-(2,6-dioxopiperidin-3-yl)-1,3-dioxoisoindolin-5-yl)pyrrolidin-3-yl)methyl)piperazin-1-yl)-3-fluorophenyl)amino)-3-((R)-3-(3-methyl-2-oxoimidazolin-1-yl)piperidin-1-yl)-1,2,4-triazin-6-carboxamide], the half-life at 0.97 µg/mL in data set [3] was over 30 min. The results for the DC50 at BTK-C481S and on BTK were under 10 nM and under 1 nM, respectively. In data set [1], the “TGI (%)” value amounted to 96.67%. Also, the Inhibition ratio % was 60.8% in the data set on B cell activation (concentration 0.16 nM) and 100% with B cell activation (concentration 0.80 nM). In addition, the DNAUC in data set [2] is 3614 ng/ml*h/mpk. In data set [2], this compound gave a Cmax of 6190 ng/mL. Besides, the values for the IC50 in the data set on OCI-LY10 cells and in the data set on Mino cells were 0.9 nM and 3.61 nM, respectively.

For `CN1CCN([C@@H]2CCCN(c3nnc(C(N)=O)c(Nc4ccc(N5CCN(CC6CCN(c7ccc(C(=O)N[C@H]8CCC(=O)NC8=O)nc7)C6)CC5)c(F)c4)n3)C2)C1=O` (stereo partly drawn) [Compound 145, 5-((4-(4-((1-(6-(((S)-2,6-dioxopiperidin-3-yl)carbamoyl)pyridin-3-yl)pyrrolidin-3-yl)methyl)piperazin-1-yl)-3-fluorophenyl)amino)-3-((R)-3-(3-methyl-2-oxoimidazolin-1-yl)piperidin-1-yl)-1,2,4-triazin-6-carboxamide], the half-life at 0.97 µg/mL in data set [3] was over 30 min. Besides, the DC50 at BTK is under 1 nM. In data set [2], this compound came in with a DNAUC of 2704 ng/ml*h/mpk and a Cmax of 13800 ng/mL. This compound also returned an IC50 in the data set on OCI-LY10 cells of 0.56 nM. In the data set with Mino cells, this compound had an IC50 of 4.15 nM.

Take `CN1CCN([C@@H]2CCCN(c3nnc(C(N)=O)c(Nc4ccc(N5CCN(CC6CCN(c7ccc(C(=O)NC8CCC(=O)NC8=O)nc7)CC6)CC5)c(F)c4)n3)C2)C1=O` (stereo partly drawn) [Compound 146, 5-((4-(4-((1-(6-((2,6-dioxopiperidin-3-yl)carbamoyl)pyridin-3-yl)piperidin-4-yl)methyl)piperazin-1-yl)-3-fluorophenyl)amino)-3-((R)-3-(3-methyl-2-oxoimidazolin-1-yl)piperidin-1-yl)-1,2,4-triazin-6-carboxamide]: the half-life at 0.97 µg/mL in data set [3] is over 30 min. Besides, the 50% degradation concentration (DC50) on BTK-C481S is under 10 nM; at BTK, under 1 nM. For the same compound, the IC50 was found to be 1.39 nM in the data set on OCI-LY10 cells and 1.73 nM in the data set on Mino cells.

In the case of `CN1CCN([C@@H]2CCCN(c3nnc(C(N)=O)c(Nc4ccc(N5CCN(CC6CCN(c7ccc(C(=O)NC8CCC(=O)NC8=O)c(F)c7)CC6)CC5)c(F)c4)n3)C2)C1=O` (stereo partly drawn) [Compound 254, 5-((4-(4-((1-(4-((2,6-dioxopiperidin-3-yl)carbamoyl)-3-fluorophenyl)piperidin-4-yl)methyl)piperazin-1-yl)-3-fluorophenyl)amino)-3-((R)-3-(3-methyl-2-oxoimidazolidin-1-yl)piperidin-1-yl)-1,2,4-triazin-6-carboxamide], the half-life at 0.97 µg/mL in data set [3] is over 30 min. Further, the 50% degradation concentration (DC50) at BTK is under 1 nM. In data set [2], the DNAUC stood at 2536 ng/ml*h/mpk. The same compound showed a Cmax in data set [2] (class symbols) of over 6000 ng/mL. This compound returned an IC50 in the data set on OCI-LY10 cells of 0.89 nM.

As for `CN1CCN([C@@H]2CCCN(c3nnc(C(N)=O)c(Nc4ccc(N5CCN(CC6CCN(c7ccc(N8CCC(=O)NC8=O)cc7)CC6)CC5)c(F)c4)n3)C2)C1=O` [Compound 255, (R)-5-((4-(4-((1-(4-(2,4-dioxotetrahydropyrimidin-1(2H)-yl)phenyl)piperidin-4-yl)methyl)piperazin-1-yl)-3-fluorophenyl)amino)-3-(3-(3-methyl-2-oxoimidazolidin-1-yl)piperidin-1-yl)-1,2,4-triazin-6-carboxamide], the half-life at 0.97 µg/mL in data set [3] is over 30 min. Besides, the DC50 is under 10 nM at BTK-C481S and under 1 nM on BTK. This compound also came in with a DNAUC in data set [2] of 1955 ng/ml*h/mpk. This compound also came in with a Cmax in data set [2] (class symbols) of over 6000 ng/mL. For the same compound, the IC50 was 1.5 nM in the data set with OCI-LY10 cells and under 0.26 nM in the data set on Mino cells.

Take `COc1cc(N2CCC(CN3CCN(c4ccc(Nc5nc(N6CCC[C@@H](N7CCN(C)C7=O)C6)nnc5C(N)=O)cc4F)CC3)CC2)ccc1N1CCC(=O)NC1=O` [Compound 259, (R)-5-((4-(4-((1-(4-(2,4-dioxotetrahydropyrimidin-1(2H)-yl)-3-methoxyphenyl)piperidin-4-yl)methyl)piperazin-1-yl)-3-fluorophenyl)amino)-3-(3-(3-methy 1-2-oxoimidazolidin-1-yl)piperidin-1-yl)-1,2,4-triazin-6-carboxamide]: in data set [3], the half-life at 0.97 µg/mL is over 30 min. Further, the DC50 on BTK-C481S was under 10 nM; on BTK, under 1 nM. In addition, the DNAUC in data set [2] is given as 2223 ng/ml*h/mpk. This compound returned a Cmax in data set [2] (class symbols) of over 6000 ng/mL. The IC50 is 0.61 nM with OCI-LY10 cells and 5.58 nM with Mino cells.

Regarding `C=CC(=O)N1CCC[C@@H](n2nc(-c3ccc(Oc4ccccc4)cc3)c3c(N)ncnc32)C1` [Ibrutinib], the “TGI (%)” value in data set [1] was determined as 50.72%.
